According to article PMC6891695, “Evaluation of Antifouling Potential and Ecotoxicity of Secondary Metabolites Derived from Red Algae of the Genus Laurencia” (Marine Drugs, 2019):
Where two headings read alike, the source gives them in different places.

Legend:
[1] = in vivo; type: in vivo; details: Amphibalanus amphitrite, in vivo, read-out: LC50 Mortality; for LC50 at 24 h: 24 h exposure; for LC50 at 48 h: 48 h exposure; for LC50 at 72 h: 72 h exposure
Method: (§1) Adult A. amphitrite (Cirripedia, Balanidae) were collected from boat docks at Port Mikrolimano and Floisvos, Athens, Greece. Animals were cleaned of epibionts with a small hard brush and meticulously identified as individuals of the species. Adult barnacles were kept in separate aerated glass tanks (20 L) containing 200-μm filtered natural seawater at 27 °C and a 12:12 L:D photoperiod. Tanks were fed with 24-h hatched Artemia sp. (Branchiopoda) nauplii and Tetraselmis suecica (Chlorodendrophyceae) and Skeletonema costatum (Bacillariophyceae) algae each day and seawater was changed on alternate days. Upon stress to induce oviposition (exposure to air for 24 h or immersion in fresh water for 5 h), adults were returned to seawater for larval release. Hatched nauplii were attracted to a point light source, collected and placed into a beaker containing 2 or 3 L of 0.7 μm GF/F (GE Healthcare, Little Chalfont, UK )-filtered natural seawater at a density of approximately 1–2 nauplii/mL with gentle aeration. Nauplii were maintained at 27 °C at a 12:12 L:D photoperiod on a diet of C. gracilis (Bacillariophyceae) provided at a density of 2 × 10^5 cells/mL. Cultured in these conditions, nauplii metamorphosed to cyprids in 5 days. Aliquots of these cyprids were collected with a wide-mouthed Pasteur pipette and aged at 4 °C for 1 day prior to use in settlement assays. Only batches of cyprids that were active and had numerous oil cells, representing energy reserves, were used in settlement assays.
(§2) Assays were conducted by adding 10 cyprids into individual wells of a 24-well polystyrene sterile microplate (Orange Scientific, Braine l’Alleud, Belgium) with 2 mL of artificial sea water (ASW) (25‰) and various concentrations of the chemical compounds as listed in Table 1. These experiments were repeated at least three times with four replicates for each concentration of any given compound (n = 120 cyprids/compound). Stock solutions for all compounds were prepared in methanol (Scharlab, Barcelona, Spain) and serial dilutions were prepared in 0.7 μm (GF/F, GE Healthcare, Little Chalfont, UK), filtered sea water to have a final concentration of 2.5% methanol in each assay solution. Plates were covered and sealed with Parafilm® to avoid evaporation and incubated at 25 °C away from any light source and examined after 24, 48 and 72 h. Each animal was inspected under a stereomicroscope and its condition was recorded. […] Both permanently attached and metamorphosed individuals were counted as settled or juveniles. The remainder were counted as ‘no metamorphosis’, i.e. animals that responded to light touch and were still cyprids at the end of the experiments with no overt signs of metamorphosis.
(§3) For EC50 or IC50 (the concentration that results in 50% stimulation or inhibition relative to the control) calculations in GraphPad Prism v.6, all data were fitted to the curve according to the following models for normalized response: Y = 100/(1 + 10^((X − LogIC50))) or Y = 100/(1 + 10^((LogEC50 − X))) depending on the trend of the curve.

[2] = test system: cyprids of A. amphitrite; test: whole plant or invertebrate; type: in vivo; details: for EC50 / IC50: Amphibalanus amphitrite; for EC50: read-out: EC50 No Metamorphosis; for IC50: read-out: IC50 Settlement; for toxic effect on cyprids: in vivo; for EC50 values for settlement inhibition of barnacle cyprids (in words): consistently, 24-72 h
Method: as §1, §2, §3

[3] = Artemia salina toxicity assay; type: in vivo; details: Artemia salina, in vivo, read-out: EC50 Artemia salina toxicity (mortality)
Method: The short-term toxicity assay with A. salina nauplii was used to determine the toxicity of secondary metabolites. Hatching of A. salina nauplii was carried out in ASW (35‰) using 0.5 g of cysts incubated in 500 mL seawater at a temperature of 25 ± 1 °C and lateral illumination (1000 Lux). All cysts were kept in continuous suspension with aeration and 24 h later hatched larvae (instar I) were harvested. Toxicity assays were carried out in three independent experiments in 24-well plates with four replicates of each tested concentration. Ten nauplii per well were transferred with a Pasteur pipette into the 24-well plates and each well was filled with 2 mL of ASW and 50 μL of various concentrations of the tested compounds in methanol. Control treatments received 50 μL of methanol. Plates were incubated in the dark at 25 ± 1 °C for 48 h. Mortality was assessed by recording the number of individuals with no movement of their appendages within 10 seconds and is expressed as the percentage of the total number of assessed individuals for each concentration.
as §3

[4] = test system: Chaetoceros gracilis; test: Chaetoceros gracilis toxicity (phytoplankton growth) assay; type: cell-based; details: 96 h; for EC50: Chaetoceros neogracilis
Method: For phytoplankton growth toxicity assays, the criterion for assay validity was that the cell count of the negative control after 96 h should be ≥2 × 10^5 cells/mL [40].
The centric marine diatom C. gracilis Schütt (strain CCMP1315) was grown photoautotrophically in autoclaved artificial seawater (sea salts; Sigma-Aldrich, St. Louis, MO, USA) (30‰) supplemented with F/2 (half-strength medium f as subsequently modified) in 100 mL medium at 20 °C and with ambient air bubbled in the media. By monitoring cell density, an adjusted culture of >1 × 10^6 cells/mL was used for the toxicity assays. At 96 h, a 0.9 mL aliquot of each treatment was sampled, mixed with 0.1 mL Lugol and cell density was counted. Experiments were assumed valid if cell count in the control after 96 h was […].
as §3

Compound | LC50 at 24 h [1] | LC50 at 48 h [1] | LC50 at 72 h [1] | EC50 ([2]; 24 h) | IC50 ([2]; 24 h) | IC50 ([2]; 48 h) | IC50 ([2]; 72 h) | EC50 ([2]; 48 h) | EC50 ([2]; 72 h) | toxic effect on cyprids [2] | EC50 values for settlement inhibition of barnacle cyprids (in words) [2] | LC50 at 24 h [3] | LC50 at 48 h [3] | C. gracilis exclusion criterion (EC50 compared with bromosphaerol) [4] | EC50 [4]
C=C1CC[C@@](C)(c2ccc(C)cc2)[C@H]1C [Compound 1, laurene] | 26 µM | 230 µM | 29.5 µM | 38 µM | 27.9 µM | 14.6 µM | 16.2 µM | – | – | – | – | – | – | – | –
C=C1CC[C@@](C)(c2ccc(C)cc2OC(C)=O)[C@H]1C [Compound 2, debromoallolaurinterol acetate] | > 1000 µM | 790 µM | 191 µM | 44 µM | 2.02 µM | 18.1 µM | 19.8 µM | 38.2 µM | 36.5 µM | – | – | – | – | – | –
C=C1CC[C@@](C)(c2cc(Br)c(C)cc2OC(C)=O)[C@H]1C [Compound 3, allolaurinterol acetate] | 66.1 µM | 382 µM | 269 µM | – | 1.04 µM | 1.8 µM | 2 µM | 80.9 µM | 109 µM | – | – | – | – | – | –
Cc1cc2c(cc1Br)C1(C)CCC(C)(O2)C1C (stereo not shown) [Compound 5, filiformin] | 33.1 µM | – | – | 27 µM | 2.26 µM | 5.45 µM | 12.9 µM | 0.001 µM | 0.287 µM | – | – | – | – | – | –
Cc1cc(O)c(C2(C)CCC3CC32C)cc1Br (stereo not shown) [Compound 6, laurinterol] | 12.3 µM | 5.29 µM | 2.31 µM | 28.3 µM | 2.42 µM | 2.22 µM | 1.27 µM | 10.8 µM | 15 µM | obvious toxic effect on cyprids | – | – | – | – | –
CC(C)[C@H]1CC(C)(C)[C@@H](O)C2=C1CC[C@H]2C [Compound 7, epibrasilenol] | 24.8 µM | 23.4 µM | 25 µM | 25.4 µM | 17.5 µM | 17.7 µM | 10.3 µM | 21.7 µM | 53.2 µM | – | – | – | – | – | –
CC(C)C1=C2CCC(C)C2CC(C)(C)C1O (stereo not shown) [Compound 8, 4-hydroxy-5-brasilene] | 7.76 µM | 7.38 µM | 5.93 µM | 6.81 µM | 15.8 µM | 17.5 µM | 6.95 µM | 5.01 µM | 5.42 µM | obvious toxic effect on cyprids | – | – | – | – | –
CC1=CC[C@@]2(C)C(=C(C)C(=O)[C@@H](O)[C@@H]2C)CC1 [Compound 10, perforenone A] | 28.8 µM | 28.5 µM | 28.8 µM | 39.3 µM | 5.24 µM | 0.662 µM | 4.66 µM | 71 µM | 57.2 µM | – | – | – | – | – | –
CC1C(Br)C(=O)C(C)C23CCC2(C)C(Br)CC13C (stereo not shown) [Compound 11, perforatone] | 56.1 µM | 38.4 µM | – | 0.003 µM | 0.003 µM | 0.002 µM | 0.002 µM | 0.002 µM | – | – | sub-micromolar | 10.1 µM | 1.57 µM | did not pass this criterion | 4.52 µM
C=CC(C)(O)CC[C@H](Br)[C@@]1(C)CC[C@H](Br)C(C)(C)O1 (stereo partly shown) [Compound 13, obtusenol] | 29.8 µM | 849 µM | 8.15 µM | 46.4 µM | 1.49 µM | 1.06 µM | 1.02 µM | 64.7 µM | 78.9 µM | – | – | – | – | – | –
CC1(C(Br)CO)CC=C2C(C1)C(O)CC1C2(C)CCC(Br)C1(C)C (stereo not shown) [Compound 14, 3,15-dibromo-7,16-dihydroxy-isopimar-9(11)-ene] | 1.96 µM | 3.61 µM | 3.54 µM | 6.42 µM | 0.011 µM | 0.065 µM | 0.028 µM | 5.15 µM | 7.72 µM | – | sub-micromolar | 34.2 µM | 15.1 µM | did not pass this criterion | 1.61 µM
CC(=O)OCC(Br)C1(C)CC=C2C(C1)C(O)CC1C2(C)CC(OC(C)=O)C2CC21C (stereo not shown) [Compound 15, deoxyparguerol 16-acetate] | 31.7 µM | 33.4 µM | 34.6 µM | 63.6 µM | 2.84 µM | 7.02 µM | 5.37 µM | 55.1 µM | 73 µM | – | – | – | – | – | –
C=CC(C)(O)CCC1C(=C)CCC(Br)C1(C)CCC(O)C(C)(C)Cl (stereo not shown) [Compound 16] | > 1000 µM | > 1000 µM | > 1000 µM | 58.3 µM | 1.42 µM | 1.96 µM | 2.2 µM | 49.1 µM | 58.5 µM | – | – | – | – | – | –
C=CC(C)(O)CCC1C(=C)CCC(Br)C1(C)CCC(Br)C(C)(C)O (stereo not shown) [Compound 17] | – | – | > 1000 µM | 0.057 µM | 0.634 µM | 0.806 µM | 1.19 µM | 0.921 µM | 101 µM | – | – | – | – | – | –
CC(=CC=CC1(C)CCC(Br)C(C)(C)O1)C1CCC(C)(O)C(Br)C1 (stereo not shown) [Compound 20, O^11,15-cyclo-14-bromo-14,15-dihydrorogiol-3,11-diol] | – | – | 138 µM | 47 µM | 2.57 µM | 2.89 µM | 3.32 µM | 11.3 µM | 10.1 µM | – | – | – | – | – | –
C#CC=CCC1OC(C=CC)CC=CCC1Cl (stereo not shown) [Compound 21, (3Ε)-laurenyne] | 0.575 µM | 1.12 µM | 18.6 µM | 7.42 µM | 3.21 µM | 7.37 µM | 0.575 µM | 18.2 µM | 0.001 µM | – | – | – | – | – | –
CCC=CCC(Br)C(CC1OC(C=C=CBr)CC1OC(C)=O)OC(C)=O (stereo not shown) [Compound 23, graciosallene] | – | – | – | 0.276 µM | 0.237 µM | 9.18 µM | 9.7 µM | 10.3 µM | 11.2 µM | – | – | – | – | – | –
